According to patent US10774063B2, “Materials and method for inhibiting replication protein A and uses thereof” (INDIANA UNIVERSITY RESEARCH AND TECHNOLOGY CORPORATION, priority 2014, dated 2020):
Where two headings read alike, the source gives them in different places.

Assays:
[1] = tested on: A2780 cells; assay: Assessment of synergy via combination index (Chou-Talalay), colony formation; format: cell-based; conditions: A2780, at 0.5 or higher fraction of cells affected
Method: (§1) Referring now to clonogenic survival assays, cells were plated in a 6 well (100,000 cells/well) or 24 well (25,000 cells/well) plate, incubated for at least 18 hours and then treated with Pt/etoposide and/or RPA inhibitors. After 48 hours of treatment, the cells were re-plated in 10 cm dishes (500-1000 cells/dish) and incubated for 8-10 days to allow colony formation. Plates were then washed with PBS, fixed with glutaraldehyde (Fisher Scientific) and stained with crystal violet (Acros Organics). The colonies were then counted using an Acolyte Synbiosis colony counter, viability determined versus vehicle controls which were plotted versus drug concentration.
Referring now to Assessment of Synergy via Combination Index, in the combination index studies, the A2780 cells were treated with RPA inhibitor and Pt/etoposide alone as well as the combination of both—the inhibitor and the DNA damaging chemotherapeutic agent. The range of treatment was dependent on the IC50 of each inhibitor/drug. If the IC50 was X, then the cells were treated at a range of X/4 to 3X concentration in a colony formation assay. […]

[2] = Preliminary pharmacokinetic analysis; format: in vivo, mice
[3] = tested on: A2780 EOC cell line; assay: Clonogenic survival assay in A2780 cells; format: cell-based; conditions: 48 hours treatment, 1-200 μM, read-out: Cellular IC50
Method: Referring now to cell culture, A2780 cells and A2780/R cells were purchased from Sigma. All other cell lines were from ATCC and routinely tested for mycoplasma contamination. Cells were maintained in RPMI media supplemented with 10% FBS (Atlanta Biological), penicillin and streptomycin. Cultures were incubated at 37° C. in 5% CO2 and sub-cultured 2-3 times per week.
as §1

[4] = Safety and tolerability (body weight) in naive NOD/SCID mice; format: in vivo
Method: Referring now to in vivo analysis of TDRL-551, non-obese diabetic/severe combined immunodeficient mice (NOD/SCID) were obtained from The Jackson Laboratory. All animal studies were conducted under the guidelines of the NIH and were approved by the Institutional Animal Care and Use Committee of Indiana University School of Medicine. Animals were maintained under pathogen-free conditions and a 12-hour light-dark cycle. The safety and tolerability of TDRL-551 was assessed in naïve NOD/SCID mice. Mice were treated IP with increasing concentrations of TDRL-551 in a formulation consisting of 20% DMSO, 10% Tween 80, 70% PBS. Based on preliminary PK analysis and a half-life of ˜7 hours (data not shown) we administered 3 doses per week for two weeks and measured body weight every other day.

[5] = target: full length, heterotrimeric human RPA (fl-RPA) (Homo sapiens (Human), UniProt P27694); assay: EMSA for inhibition of RPA-DNA binding activity (full length RPA)
full length, heterotrimeric human RPA (fl-RPA), sequence (P27694 whole entry, the tested form may be a part): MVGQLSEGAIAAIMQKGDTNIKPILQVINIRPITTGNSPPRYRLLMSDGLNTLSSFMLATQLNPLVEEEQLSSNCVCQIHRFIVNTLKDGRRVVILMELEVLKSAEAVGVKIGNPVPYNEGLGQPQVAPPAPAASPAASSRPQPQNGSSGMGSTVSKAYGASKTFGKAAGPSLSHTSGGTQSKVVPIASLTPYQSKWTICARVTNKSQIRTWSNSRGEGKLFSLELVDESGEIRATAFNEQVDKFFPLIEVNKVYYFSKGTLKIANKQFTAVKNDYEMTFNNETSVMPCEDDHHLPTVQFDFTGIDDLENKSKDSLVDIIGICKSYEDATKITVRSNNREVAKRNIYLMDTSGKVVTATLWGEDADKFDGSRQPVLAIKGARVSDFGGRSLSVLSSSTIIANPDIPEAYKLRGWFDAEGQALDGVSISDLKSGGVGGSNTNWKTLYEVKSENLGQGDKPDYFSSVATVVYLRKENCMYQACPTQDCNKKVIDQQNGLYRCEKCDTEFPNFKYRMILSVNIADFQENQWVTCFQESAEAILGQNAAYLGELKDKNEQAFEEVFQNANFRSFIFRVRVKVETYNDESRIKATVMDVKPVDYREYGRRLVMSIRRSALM
full length, heterotrimeric human RPA (fl-RPA), sequence (P15927 whole entry partner, the tested form may be a part): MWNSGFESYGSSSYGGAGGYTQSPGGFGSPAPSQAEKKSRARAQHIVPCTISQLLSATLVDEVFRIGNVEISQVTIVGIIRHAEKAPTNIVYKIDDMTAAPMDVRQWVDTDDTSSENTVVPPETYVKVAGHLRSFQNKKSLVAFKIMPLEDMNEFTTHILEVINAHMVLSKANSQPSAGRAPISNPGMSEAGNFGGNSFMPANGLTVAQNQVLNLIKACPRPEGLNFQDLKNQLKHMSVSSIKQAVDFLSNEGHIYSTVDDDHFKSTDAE
full length, heterotrimeric human RPA (fl-RPA), sequence (P35244 whole entry partner, the tested form may be a part): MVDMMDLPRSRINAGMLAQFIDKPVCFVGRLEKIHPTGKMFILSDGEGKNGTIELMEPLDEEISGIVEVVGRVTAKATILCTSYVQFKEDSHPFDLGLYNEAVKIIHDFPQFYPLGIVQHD
Method: Referring to protein purification, full length, heterotrimeric human RPA (fl-RPA) was expressed in E. coli and purified by a three column procedure as previously described (See Patrick S M and Turchi J, Replication Protein A (RPA) Binding to Duplex Cisplatin-damaged DNA Is Mediated through the Generation of Single-stranded DNA. J Biol Chem 1999; 274:14972-8). The DBD-A/B construct was expressed as a SUMO-His6-RPA^181-432 fusion protein. E. coli BL21 (DE3) cells in log growth were induced for 3 hours with 0.5 mM IPTG at 37° C. The cells were lysed in buffer containing 50 mM Tris pH 7.5, 300 mM NaCl, 10% sucrose, 10 mM imidazole, 25 μg/ml lysozyme, 1 μg/ml leupeptin, 1 μg/ml pepstatin and 0.5 mM PMSF. The lysate was loaded onto a Ni-NTA column washed and then incubated overnight with wash buffer containing 3 μg/ml ULP1 protease to cleave the SUMO tag. The cleaved His6-RPA^181-432 was eluted from the Ni-NTA column with elution buffer containing 350 mM imidazole. The His6-RPA was then further purified on a size exclusion column (SEC) to remove the cleaved SUMO tag fragment. The SEC pool was then concentrated and stored at −80° C.
Referring now to Electrophoretic Mobility Shift Assays (“EMSA”), EMSA reactions (20 μL) were performed with 50 nM fl-RPA and 2.5 nM 5′[^32P]-labeled 34-base DNA in buffer containing 20 mM HEPES (pH 7.0), 1 mM DTT, 0.001% NP-40, 100 mM NaCl, 5 mM MgCl2 and 50 μg/ml bovine serum albumin (BSA). Chemical compounds, either purchased from ChemDiv or synthesized in the laboratory, were suspended in DMSO and titrated as detailed in each figure. The DMSO concentration in the reaction mixture was kept constant at or below 5%. RPA was incubated with inhibitor or DMSO control in reaction buffer for 30 minutes before the addition of DNA. Reactions were incubated for 5 minutes at room temperature and products separated via 6% native polyacrylamide gel electrophoresis. The bound and unbound fractions were then quantified by phosphor-imager analysis using ImageQuant software (Molecular Dynamics, CA) and IC50 values calculated by non-linear regression using SigmPlot (Sysat). For EMSA reactions with RPA DBD-A/B, 150 nM DBD-A/B was used and electrophoresis was performed at 4° C. All other conditions were identical to those described for the full length RPA.

[6] = EMSA, RPA incubated with compounds at 1-125 μM, read-out: In vitro IC50
[7] = compounds titrated at 1-125 μM, read-out: IC50 calculated from EMSA reactions

Row | Structure (SMILES) | IC50 [5, 6] | IC50 [5, 7] | further results
1 | CCOc1ccc2cc(C3CC(c4ccc(I)cc4)=NN3C(=O)CCCC(=O)O)c(Cl)nc2c1 (centres unmarked) |  |  | combination index (CI) with cisplatin [1]: < 1; half-life ([2]; NOD/SCID, mouse, plasma, preliminary PK analysis): ~7 h; plasma concentration achieved ([2]; initial pharmacokinetic analysis): > 20 µM; IC50 ([3]; Homo sapiens): 25 µM; adverse effects / loss of weight ([4]; co-treatment with carboplatin, up to 200 mg/kg): no adverse effects or loss of weight; body weight change ([4]; intraperitoneal administration up to 200 mg/kg, 3 doses per week for two weeks): no weight loss observed; body weight change ([4]; intraperitoneal, 300 mg/kg): slight decrease in body weight; loss of weight ([4]; intraperitoneal, 300 mg/kg): ≤ 10%
2 | CCOc1ccc2cc(C3CC(c4ccc(I)cc4)=NN3c3cccc(C(=O)O)c3)c(Cl)nc2c1 (centres unmarked) [NG-01-02] | 75.5 µM |  | 
3 | CCOc1ccc2cc(C3CC(c4ccc(I)cc4)=NN3c3ccc(C(=O)O)cc3)c(Cl)nc2c1 (centres unmarked) [NG-01-04] | > 100 µM |  | 
4 | CCOc1ccc2cc(C3CC(c4ccc(I)cc4)=NN3C(=O)CCCCC(=O)O)c(Cl)nc2c1 (centres unmarked) [NG-01-24] | 7 µM |  | 
5 | CCOc1ccc2cc(C3CC(c4ccc(I)cc4)=NN3C(=O)CCCCCC(=O)O)c(Cl)nc2c1 (centres unmarked) [NG-01-25] | 10 µM |  | 
6 | COc1ccc(C2CC(c3ccccc3)=NN2C(=O)CCCC(=O)O)cc1OC (centres unmarked) [a] |  | > 100 µM | 
7 | COc1ccc(C2CC(c3ccc(C)cc3)=NN2C(=O)CCCC(=O)O)cc1OC (centres unmarked) [b] |  | > 100 µM | 
8 | COc1ccc(C2=NN(C(=O)CCCC(=O)O)C(c3ccccc3OC)C2)cc1 (centres unmarked) [c] |  | > 100 µM | 
9 | CCOc1ccc2cc(C3CC(c4ccc(Br)cc4)=NN3C(=O)CCCC(=O)O)c(Cl)nc2c1 (centres unmarked) [d] |  | 25 µM | 
10 | CCOc1ccc2cc(C3CC(c4ccc(C)cc4)=NN3C(=O)CCC(=O)O)c(Cl)nc2c1 (centres unmarked) [e] |  | 80 µM | 
11 | COc1ccc2cc(C3CC(c4ccc(Cl)cc4)=NN3C(=O)CCC(=O)O)c(Cl)nc2c1 (centres unmarked) [f] |  | 75 µM | 
12 | COc1ccc(C2=NN(C(=O)CCC(=O)O)C(c3cc4ccc(OC)cc4nc3Cl)C2)cc1 (centres unmarked) [g] |  | > 100 µM | 
13 | COc1ccc2cc(C3CC(c4ccc(OC)c(OC)c4)=NN3C(=O)CCC(=O)O)c(Cl)nc2c1 (centres unmarked) [h] |  | > 100 µM | 
14 | COc1ccc2cc(C3CC(c4ccc(C)cc4)=NN3C(=O)CCCC(=O)O)c(Cl)nc2c1 (centres unmarked) [i] |  | > 100 µM | 
15 | COc1ccc2cc(C3CC(c4ccc(Cl)cc4)=NN3C(=O)CCCC(=O)O)c(Cl)nc2c1 (centres unmarked) [j] |  | 60 µM | 
16 | COc1ccc2cc(C3CC(c4ccc(OC)c(OC)c4)=NN3C(=O)CCCC(=O)O)c(Cl)nc2c1 (centres unmarked) [k] |  | > 100 µM | 
17 | O=C(O)CCCC(=O)N1N=C(c2ccccc2)CC1c1cc2cc3c(cc2nc1Cl)OCCO3 (centres unmarked) [l] |  | > 100 µM | 

Further lines, with some results ahead:

Row | IC50 [5, 6] | IC50 [5, 7] | Structure (SMILES) | further results
18 | > 50 µM |  | COc1ccc2cc(C3CC(c4ccc(Br)cc4)=NN3C(=O)CCCC(=O)O)c(Cl)nc2c1 (centres unmarked) [TDRL-533] | IC50 [3]: > 50 µM
19 | 35 µM |  | COc1ccc2cc(C3CC(c4ccc(Br)cc4)=NN3C(=O)CCCCC(=O)O)c(Cl)nc2c1 (centres unmarked) [TDRL-534] | 
20 | > 100 µM |  | COc1ccc2cc(C3CC(c4ccc(F)cc4)=NN3C(=O)CCCCC(=O)O)c(Cl)nc2c1 (centres unmarked) [TDRL-539] | 
21 | > 100 µM |  | COc1ccc2cc(C3CC(c4ccc(F)cc4)=NN3C(=O)CCCC(=O)O)c(Cl)nc2c1 (centres unmarked) [TDRL-540] | 
22 | 25 µM |  | CCOc1ccc2cc(C3CC(c4ccc(Br)cc4)=NN3C(=O)CCCCC(=O)O)c(Cl)nc2c1 (centres unmarked) [TDRL-543] | IC50 [3]: 50 µM
23 | 43 µM |  | CC(C)Oc1ccc2cc(C3CC(c4ccc(Br)cc4)=NN3C(=O)CCCCC(=O)O)c(Cl)nc2c1 (centres unmarked) [TDRL-556] | 
24 | 30 µM |  | CCOc1ccc2cc(C3CC(c4ccc(OC(F)(F)F)cc4)=NN3C(=O)CCCCC(=O)O)c(Cl)nc2c1 (centres unmarked) [TDRL-557] | 
25 | > 100 µM |  | CCOc1ccc2cc(C3CC(c4ccc(Br)nc4)=NN3C(=O)CCC(=O)O)c(Cl)nc2c1 (centres unmarked) [TDRL-617] | 
26 | 15 µM |  | CCOc1ccc2cc(C3CC(c4cccc(I)c4)=NN3C(=O)CCCCC(=O)O)c(Cl)nc2c1 (centres unmarked) [TDRL-652] | 
